Data from patent US10239836B2, “Benzenecarbothioccyclopenta[c] pyrrole-1,3-dione compounds and process for synthesis thereof” (Council of Scientific & Industrial Research, priority 2014, dated 2019).
Read-outs that look alike come from different tables or passages of the source.

How the values were obtained:
[1] = Cytotoxicity assay (MTT viability); format: cell-based, Mouse; details: mouse; RAW 264.7 cells, MTT, 24 h treatment, serum free
Procedure: (§1) Mouse macrophage cell line RAW 264.7 was maintained in laboratory at 37° C. in
(§2) RPMI-1640 media supplemented with 10% heat-inactivated fetal bovine serum (FBS) and penicillin/streptomycin.
(§3) Viability of cultured cells was determined by (4,5-dimethylthiazol-2-yl)-2,5-diphenyltetrazolium bromide (MTT; Sigma) as described earlier (1). RAW 264.7 was seeded in triplicate at a density of 2×10^4 cells per well on a 96-well plate. […] MTT solution (0.5 mg/ml) was then added to each well and incubate for 4 h at 37° C. At the end of the incubation period, the medium was removed and the resulting purple formazan was solubilized with acidic isopropanol (0.1 N HCl in absolute isopropanol), and the absorbance was read at 570 nm using Biorad Microplate reader (Biorad, USA).

[2] = test system: LPS induced NO generation in RAW 264.7 cells; experiment: Inhibition of LPS induced NO generation (nitrite, Griess reagent); format: cell-based, Mouse; details: for IC50: RAW 264.7 cells, LPS 1 μg/ml, 24 h, serum-free, read-out: NO inhibition (B) IC50; for Selectivity index (A/B): cytotoxicity IC50 / NO inhibition IC50, RAW 264.7 cells
Procedure: as §1, §2
Nitrite, a stable oxidized product of NO, was measured in culture supernatant using Griess reagent (Sigma Aldrich) according to a previously reported method (2). After overnight seeding in 96-well plate (2×10^4 cells/well), RAW 264.7 cell was treated with lipopolysaccharide (LPS; Sigma) at a concentration of 1 μg/ml along with different doses of compounds (as determined from cytotoxicity assay) in serum-free culture for 24 h. Following treatment, media was collected and centrifuged at 2,000 rpm for 5 min to remove cellular debris. 50 μl of this media was then reacted with equal volume of Griess reagent for 15 min at room temperature in dark and absorbance was taken at 540 nm using Microplate reader (Biorad, USA). Nitrite concentrations were determined using standard solutions of sodium nitrite prepared in cell culture medium.

[3] = test system: RAW 264.7 cells; experiment: Cytotoxicity assay (MTT viability); format: cell-based, Mouse
Procedure: as §1, §2, §3

[4] = test system: H1N1 virus; details: MDCK cells; Yang et al., Organic Letter 2013; cited from earlier work

| SMILES | IC50 at 24 h [1] | IC50 ([2]; Mus musculus, RAW264.7) | Selectivity index (A/B) [2] | melting point | IC50 [3] | IC50 [2] | inhibitory activities against the H1N1 virus [4] |
| --- | --- | --- | --- | --- | --- | --- | --- |
| CC(=O)S[C@]12CCC[C@H]1C(=O)NC2=O (relative stereo) [Compound 18, S-((3aR*,6aS*)-1,3-Dioxohexahydrocyclopenta[c]pyrrol-3a(1H)-yl) ethanethioate] | 674 µM | 59.2 µM | 11.39 | 120 to 122 °C | – | – | – |
| O=C(S[C@]12CCC[C@H]1C(=O)NC2=O)c1ccc(F)cc1 (relative stereo) [Compound 20, S-((3aR*,6aS*)-1,3-Dioxohexahydrocyclopenta[c]pyrrol-3a(1H)-yl) 4-fluorobenzothioate] | 384 µM | 390 µM | 0.9841 | 186 to 187 °C | – | – | – |
| O=C(S[C@]12CCC[C@H]1C(=O)NC2=O)c1ccccc1Cl (relative stereo) [Compound 21, S-((3aR*,6aS*)-1,3-Dioxohexahydrocyclopenta[c]pyrrol-3a(1H)-yl) 2-chlorobenzothioate] | 834 µM | 59.8 µM | 13.95 | 188 to 190 °C | – | – | – |
| CC(=O)O[C@@H]1CCC2=C1C(=O)NC2=O [(−)-5, (R)-1,3-dioxo-1,2,3,4,5,6-hexahydrocyclopenta[c]pyrrol-4-yl] | – | – | – | – | 128 µM | 867 µM | – |
| CC(=O)SC12CCC=C1C(=O)NC2=O (stereo not drawn) [Compound 26, S-(1,3-Dioxo-2,3,4,5-tetrahydrocyclopenta[c]pyrrol-3a(1H)-yl)ethanethioate] | 184 µM | 20.5 µM | 9 | 170 to 172 °C | – | – | – |
| O=C(Cc1ccccc1)SC12CCC=C1C(=O)NC2=O (stereo not drawn) [Compound 27, S-(1,3-Dioxo-2,3,4,5-tetrahydrocyclopenta[c]pyrrol-3a(1H)-yl) 2-phenylethanethioate] | 93.1 µM | 30.6 µM | 3.042 | 155 to 158 °C | – | – | – |
| O=C1NC(=O)C2=C1CCC2SC(=O)c1cccs1 (stereo not drawn) [Compound 29, S-(1,3-Dioxo-1,2,3,4,5,6-hexahydrocyclopenta[c]pyrrol-4-yl) thiophene-2-carbothioate] | 26.7 µM | 65 µM | 0.4108 | 138 to 139 °C | – | – | – |
| O=C(S[C@@]12CC[C@H](O)[C@@H]1C(=O)NC2=O)c1ccc(O)cc1 [Nitrosporeusine A] | – | – | – | – | – | – | exhibited inhibitory activities |
| O=C(S[C@@]12CC[C@@H](O)[C@@H]1C(=O)NC2=O)c1ccc(O)cc1 [Nitrosporeusine B] | – | – | – | – | – | – | exhibited inhibitory activities |
